Earlier results as cited in patent publication US6432422B1, “Creams containing vitamin D3 derivatives” (Chugai Seiyaku Kabushiki Kaisha, priority 1997, dated 2002).

Legend:
[1] = organic solvents such as ethanol and chloroform

stability in aqueous solutions (aqueous solutions): unstable in aqueous solutions
stability in base materials (base materials such as petrolatum): very high stability
solubility in organic solvents [1]: highly soluble
stability in organic solvents [1]: dramatically improved stability
solubility in water (water): scarcely soluble in water
Structure (SMILES): C=C1/C(=C\C=C2/CCC[C@]3(C)[C@@H]([C@H](C)OCCC(C)(C)O)CC[C@@H]23)C[C@@H](O)C[C@@H]1O [Maxacalcitol, 1α,3β-dihydroxy-20α-(3-hydroxy-3-methylbutyloxy)-9,10-seco-5,7,10(19)-pregnatriene]
effects on epidermal cells (epidermal cells): epidermal cell growth-inhibiting and differentiation-inducing effects
